In patent US9207296B2, “Methods and apparatus for pasadena hyperpolarization” (Huntington Medical Research Institutes, priority 2008, dated 2015):
“And” between values parts separate entries of the source, which are not always exact repeats. Equal entries are not always repeated. Where two headings read alike, the source gives them in different places.

Key:
[1] = T1 decay of hyperpolarization (small angle FID series); format: physicochemical
[2] = 13C spin storage followed by refocused INEPT polarization transfer to 1H; format: physicochemical; conditions: for initial 13C polarization: 2.4 mL sample, polarizer at 1.76 mT; for T1 during 13C spin storage: FIG. 20 samples, […] succinate / 2.9 mM TFPP; for 13C polarization after storage: after 70 s (succinate) or 24 s (TFPP), 12° excitation pulse; for 13C polarization after storage / net 1H NMR signal enhancement / final 13C signal enhancement: 4.7 T; for net 1H NMR signal enhancement: after refocused INEPT; for final 13C signal enhancement: after storage; for increase of overall sensitivity by proton detection: factor versus hyperpolarized 13C detection; for polarization transfer efficiency 13C to 1H: refocused INEPT
Excerpt: Specifically, the present subject matter hyperpolarized the ^13C site of two well studied molecules, 1-^13C-succinate-d2 and 2,2,3,3-tetrafluoropropyl 1-^13C-propionate-d3 (TFPP), by […].
Hyperpolarization was then kept on ^13C for 70 s. During this time, the polarized sample was transferred from a low magnetic field polarizer operating at 1.76 mT to 4.7 T animal MR scanner. […] Then the refocused INEPT pulse sequence^10 with τINEPT=34 ms and τrefocus=32 ms (FIG. 19) was used to transfer polarization from ^13C to protons within 1-^13C-succinate-d2 (FIG. 20A and FIG. 20B). […] The delays of the refocused INEPT were τINEPT=20 ms and τrefocus=16 ms.

[3] = for 13C signal enhancement (nascent): at 4.7 T, relative to thermal polarization; for 13C polarization achieved (maximal): best value after calibration
Method: A number of strategies have been employed to quantify the extent of hyperpolarization [Association N.E.M. Determination of signal-to-noise ratio (SNR) in diagnostic magnetic resonance imaging. NEMA Standards, Publication MS 1-2001 (2001)]. In the present application, the following convention was applied. The signal enhancement (ηobserved) achieved by hyperpolarization was quantified in respect to the signal of a thermally polarized sample (100% ethanol, 188 mM of natural abundance ^13C at each site (Eq. 7)). The signal intensities were determined by numerical integration (xWINNMR software, Bruker Biospin, Germany)
[formula] (where IHP, Iref, CHP and Cref are integral intensities and molar concentrations of hyperpolarized and reference samples, respectively).
The decay of ^13C polarization caused by longitudinal relaxation (T1) of the hyperpolarized sample during the delivery to the detection system was determined (FIG. 15). This allows for the determination of the nascent signal enhancement (Eq. 8), and nascent level of achieved polarization (Eq. 9).
Unless otherwise indicated, PHP^t=0 and η^t=0 are reported in the work presented, using a ^13C polarization of PBoltzmann=0.00041% or 4.1 ppm at 298K and 4.7 T. T1 values for the […] reagent concerned in calibration and quality assurance (“QA”) were determined directly. A series of small angle (α≈8°) FID experiments was employed to probe the decay of the magnetization of the hyperpolarized agents (small excitation angle approximation, SEA). The T1 values were extracted by the fit of Equation 10 (Eq. 10) to the data points, taking into account the loss of magnetization caused by the excitation pulses.
Delivering hyperpolarized sample and triggered detection in the NMR scanner were further optimized. The polarizer was moved to the in vivo suite, where it was positioned carefully 7.63 m+0.5 cm from a small-animal horizontal bore, high field MRI (4.7T Bruker MRI scanner). An automated system was implemented, whereby the hyperpolarized solution was driven by remaining gas pressure in the reactor, through polyethelene (PE) tubing from the polarizer to an NMR-tube in a dual-tuned ^1H/^13C solenoid coil in the MR scanner; where after a precise interval (33 seconds) acquisition was triggered. The solution was then drained to permit successive experiments without coil repositioning.
Peak amplitude was quantified by comparison with the spectrum of ethanol (FIG. 16), using the equations described herein.

rat brain = conditions: rapid ante-grade injection into common carotid artery, 1 mL, overlaid on 1H MRI

Compound	initial 13C polarization [2]	T1 during 13C spin storage [2]	13C polarization after storage [2]	net 1H NMR signal enhancement [2]	final 13C signal enhancement [2]	increase of overall sensitivity by proton detection [2]	polarization transfer efficiency 13C to 1H [2]	also measured
CC[13C](=O)OCCO [HEP, reference compound]	–	–	–	–	–	–	–	T1 decay time in D2O ([1]; D2O, pH 7, B0=4.7 T): 70 s; T1 decay time in H2O ([1]; H2O, pH 7, B0=4.7 T): 50 s
[2H]C([2H])C([2H])[13C](=O)OCC(F)(F)C(F)F (stereo not shown) [TFPP, 2,2,3,3-tetrafluoropropyl 1-^13C-propionate-d3]	14%	67 s	9.5%	2,930 fold	23,300 fold	7.9	50% and 51%	–
O=C(O)CCC(=O)O [1-^13C-SUCC-d2,3, 1-^13C-succinate-d2,3]	10.7%	105 s	5.5%	1,350 fold	13,500 fold	6.5	41%	effect of concentration on level of hyperpolarization ([3]; 1.65-2.89 mM in water, 0.96-2.93 mM in D2O): No effect; 13C signal enhancement at the point of measurement ([3]; 4.7 T, 33 s after production): 15,900 fold; PHP^t=0 average nascent polarization, stated in H2O ([3]; 16 experiments, in H2O before B1 calibration as printed): 15.3 ±1.9%; polarization at the point of measurement in water ([3]; H2O, mean delay 33 s): 5.4 ±1.3%; 13C signal enhancement (nascent) [3]: 49,000 fold and 37,400 ±4,600 fold; 13C signal enhancement (nascent) ([3]; listed as 13C succinate): 47,000 fold; 13C polarization achieved (maximal) ([3]; listed as 1-^13C succinate): 18%; 13C polarization achieved (maximal) ([3]; listed as 13C succinate): 19%; T1 of hyperpolarized 13C signal in D2O ([1]; D2O, pH 3, B0=4.7 T, N=4): 40 ± 2 s; T1 of hyperpolarized 13C signal in H2O ([1]; H2O, pH 3, B0=4.7 T, N=3, 1-3 mM SUC, 2.5 mM catalyst): 27 ± 3 s; T1 when buffered to physiological pH ([1]; buffered to pH 7 immediately before detection, preliminary): ~50 s; distribution of 13C image signal in vivo (rat brain): appeared in the anatomical distribution coincident with the rat brain
